“And” between values parts separate entries of the source, which are not always exact repeats. Equal values may be shown once. Read-outs that look alike come from different tables or passages of the source.
Tests used:
hNav1.4 = hNav1.4 (Homo sapiens, UniProt P35499); experiment: cell-based; type: cell-based; conditions: Table 13; ratio of PX tonic IC50 values
hNav1.7 = hNav1.7 (Homo sapiens, UniProt Q15858); experiment: cell-based; type: cell-based
[1] = Table 12, PatchXpress, tonic block, read-out: PX hNav1.7 Tonic IC50

hNav1.7, sequence (Q15858 whole entry): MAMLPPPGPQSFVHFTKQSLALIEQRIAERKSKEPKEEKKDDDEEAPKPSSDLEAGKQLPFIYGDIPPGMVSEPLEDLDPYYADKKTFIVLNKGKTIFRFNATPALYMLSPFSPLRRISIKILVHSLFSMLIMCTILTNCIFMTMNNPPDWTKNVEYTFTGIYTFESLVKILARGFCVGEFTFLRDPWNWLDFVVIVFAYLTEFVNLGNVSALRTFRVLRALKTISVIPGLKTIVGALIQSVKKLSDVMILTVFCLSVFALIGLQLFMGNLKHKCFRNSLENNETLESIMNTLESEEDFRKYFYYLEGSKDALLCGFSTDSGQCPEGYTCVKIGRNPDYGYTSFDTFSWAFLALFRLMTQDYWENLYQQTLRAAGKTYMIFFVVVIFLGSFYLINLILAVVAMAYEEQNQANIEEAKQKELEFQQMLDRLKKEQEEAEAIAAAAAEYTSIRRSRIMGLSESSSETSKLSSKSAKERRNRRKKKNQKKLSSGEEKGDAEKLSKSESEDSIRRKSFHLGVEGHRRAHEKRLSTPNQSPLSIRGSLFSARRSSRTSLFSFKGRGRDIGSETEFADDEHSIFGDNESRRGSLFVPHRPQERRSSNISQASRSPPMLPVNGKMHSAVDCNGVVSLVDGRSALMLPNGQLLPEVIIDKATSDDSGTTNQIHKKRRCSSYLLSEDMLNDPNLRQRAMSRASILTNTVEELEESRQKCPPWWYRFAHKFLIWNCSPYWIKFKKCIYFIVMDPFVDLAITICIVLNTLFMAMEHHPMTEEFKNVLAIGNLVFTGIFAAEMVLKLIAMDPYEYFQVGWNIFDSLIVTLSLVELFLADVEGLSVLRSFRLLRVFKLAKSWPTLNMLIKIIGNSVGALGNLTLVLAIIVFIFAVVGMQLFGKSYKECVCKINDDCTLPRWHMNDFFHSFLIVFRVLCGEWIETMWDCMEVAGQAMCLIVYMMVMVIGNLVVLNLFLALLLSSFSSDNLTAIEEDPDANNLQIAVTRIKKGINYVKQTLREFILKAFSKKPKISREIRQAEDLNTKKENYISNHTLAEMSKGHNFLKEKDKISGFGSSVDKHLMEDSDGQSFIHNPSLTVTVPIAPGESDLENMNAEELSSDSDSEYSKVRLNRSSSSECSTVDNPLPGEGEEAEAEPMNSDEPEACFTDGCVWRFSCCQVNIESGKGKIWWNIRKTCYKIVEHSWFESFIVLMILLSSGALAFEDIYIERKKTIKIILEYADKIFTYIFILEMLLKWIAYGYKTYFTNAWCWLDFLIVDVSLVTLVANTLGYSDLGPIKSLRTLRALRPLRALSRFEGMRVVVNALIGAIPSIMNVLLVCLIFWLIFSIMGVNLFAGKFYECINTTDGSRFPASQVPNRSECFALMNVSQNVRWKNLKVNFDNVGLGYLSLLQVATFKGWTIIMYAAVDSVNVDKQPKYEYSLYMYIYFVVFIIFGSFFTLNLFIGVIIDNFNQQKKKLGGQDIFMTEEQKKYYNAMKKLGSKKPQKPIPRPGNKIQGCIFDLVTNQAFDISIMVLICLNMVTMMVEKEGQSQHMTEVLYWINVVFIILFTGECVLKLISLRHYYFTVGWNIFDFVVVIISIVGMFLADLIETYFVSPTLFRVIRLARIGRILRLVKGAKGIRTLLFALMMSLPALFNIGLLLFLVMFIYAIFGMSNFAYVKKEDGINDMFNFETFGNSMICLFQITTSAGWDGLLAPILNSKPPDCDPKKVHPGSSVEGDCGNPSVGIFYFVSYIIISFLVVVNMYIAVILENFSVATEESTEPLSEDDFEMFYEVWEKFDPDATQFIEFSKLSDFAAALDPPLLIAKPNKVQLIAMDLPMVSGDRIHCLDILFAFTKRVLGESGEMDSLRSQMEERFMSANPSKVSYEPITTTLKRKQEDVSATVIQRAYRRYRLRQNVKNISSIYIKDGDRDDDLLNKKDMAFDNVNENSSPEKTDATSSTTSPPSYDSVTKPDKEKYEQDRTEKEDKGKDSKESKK
hNav1.4, sequence (P35499 whole entry): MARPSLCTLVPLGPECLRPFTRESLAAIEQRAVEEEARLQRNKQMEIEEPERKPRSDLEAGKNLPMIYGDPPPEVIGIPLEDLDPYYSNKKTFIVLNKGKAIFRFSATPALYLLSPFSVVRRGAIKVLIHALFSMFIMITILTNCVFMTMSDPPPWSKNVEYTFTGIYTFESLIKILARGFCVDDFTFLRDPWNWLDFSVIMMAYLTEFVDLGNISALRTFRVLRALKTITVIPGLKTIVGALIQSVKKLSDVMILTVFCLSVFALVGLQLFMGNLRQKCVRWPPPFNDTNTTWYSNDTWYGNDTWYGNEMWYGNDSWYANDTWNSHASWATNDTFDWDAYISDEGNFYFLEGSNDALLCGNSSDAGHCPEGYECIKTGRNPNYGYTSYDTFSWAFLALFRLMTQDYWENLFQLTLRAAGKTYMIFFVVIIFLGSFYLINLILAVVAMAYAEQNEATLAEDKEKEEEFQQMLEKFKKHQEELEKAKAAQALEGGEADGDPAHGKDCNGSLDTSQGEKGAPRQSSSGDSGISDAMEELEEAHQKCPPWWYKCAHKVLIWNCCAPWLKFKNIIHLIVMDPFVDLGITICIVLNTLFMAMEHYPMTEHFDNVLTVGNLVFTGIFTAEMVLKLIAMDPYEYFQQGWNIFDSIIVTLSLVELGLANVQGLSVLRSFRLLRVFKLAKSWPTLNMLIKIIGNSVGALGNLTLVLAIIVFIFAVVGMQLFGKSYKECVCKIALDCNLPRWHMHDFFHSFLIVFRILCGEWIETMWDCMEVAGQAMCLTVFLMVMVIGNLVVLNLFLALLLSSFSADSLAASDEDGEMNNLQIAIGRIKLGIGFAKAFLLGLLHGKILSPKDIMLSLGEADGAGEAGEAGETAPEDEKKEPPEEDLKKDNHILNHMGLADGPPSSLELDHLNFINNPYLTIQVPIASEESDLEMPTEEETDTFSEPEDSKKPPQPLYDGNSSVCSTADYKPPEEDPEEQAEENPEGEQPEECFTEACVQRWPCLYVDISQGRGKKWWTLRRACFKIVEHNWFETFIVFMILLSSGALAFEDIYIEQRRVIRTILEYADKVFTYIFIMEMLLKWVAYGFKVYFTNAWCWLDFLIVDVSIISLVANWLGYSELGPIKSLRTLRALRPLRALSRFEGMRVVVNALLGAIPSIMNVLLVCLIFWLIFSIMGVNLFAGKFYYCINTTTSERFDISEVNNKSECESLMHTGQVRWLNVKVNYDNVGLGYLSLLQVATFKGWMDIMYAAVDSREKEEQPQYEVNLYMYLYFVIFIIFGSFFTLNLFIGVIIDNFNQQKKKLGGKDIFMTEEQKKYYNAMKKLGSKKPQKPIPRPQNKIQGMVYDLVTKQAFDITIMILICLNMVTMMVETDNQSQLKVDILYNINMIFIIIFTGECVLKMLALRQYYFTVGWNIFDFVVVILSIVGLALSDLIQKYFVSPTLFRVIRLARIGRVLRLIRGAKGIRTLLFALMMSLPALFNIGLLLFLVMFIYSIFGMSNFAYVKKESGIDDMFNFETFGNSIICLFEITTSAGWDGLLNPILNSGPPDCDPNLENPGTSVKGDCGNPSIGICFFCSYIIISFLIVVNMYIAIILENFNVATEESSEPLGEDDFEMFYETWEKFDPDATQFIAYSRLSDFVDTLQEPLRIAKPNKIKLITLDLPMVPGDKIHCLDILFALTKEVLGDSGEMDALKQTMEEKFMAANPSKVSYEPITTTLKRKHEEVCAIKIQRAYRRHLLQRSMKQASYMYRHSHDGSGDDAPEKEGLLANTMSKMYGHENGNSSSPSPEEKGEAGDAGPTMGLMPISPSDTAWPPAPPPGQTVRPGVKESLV

| Compound | IC50 (hNav1.7; [1]) | also measured |
| --- | --- | --- |
| CCCC[C@@H]1NC(=O)[C@H](Cc2c[nH]c3ccccc23)NC(=O)[C@H](CCCCN)NC(=O)[C@H](CCC(N)=O)NC(=O)[C@@H](NC(=O)[C@H](Cc2ccc(O)cc2)NC(=O)[C@@H](N)Cc2cn(CCOCCOCCOCCOCCOCCOCCOCCOCCOCCOCCOCCOCCOCCOCCOCCOCCOCCOCCOCCOCCOCCOCCOCCNC(=O)c3cc(CNC(=O)CSCc4ccccc4)cc(C(=O)NCCOCCOCCOCCOCCOCCOCCOCCOCCOCCOCCOCCOCCOCCOCCOCCOCCOCCOCCOCCOCCOCCOCCOCCn4cc(C[C@H](N)C(=O)N[C@@H](Cc5ccc(O)cc5)C(=O)N[C@H]5CSSC[C@@H]6NC(=O)[C@@H]7CSSC[C@@H](C(=O)N[C@@H](CCCNC(=N)N)C(=O)N[C@@H](CCCCN)C(=O)N[C@H](C(=O)N[C@H](C(N)=O)[C@@H](C)CC)[C@@H](C)CC)NC(=O)[C@H](Cc8c[nH]c9ccccc89)NC(=O)[C@H](CC(C)C)NC(=O)[C@H](CCCCN)NC(=O)[C@H](CSSC[C@H](NC(=O)[C@H]([C@@H](C)O)NC(=O)[C@H](Cc8c[nH]c9ccccc89)NC(=O)[C@H](CCCC)NC(=O)[C@H](Cc8c[nH]c9ccccc89)NC(=O)[C@H](CCCCN)NC(=O)[C@H](CCC(N)=O)NC5=O)C(=O)N[C@@H](CC(=O)O)C(=O)N[C@@H](CO)C(=O)N[C@@H](CCCCN)C(=O)N[C@@H](CCCNC(=N)N)C(=O)N[C@@H](C)C(=O)N7)NC(=O)[C@H](CCCNC(=N)N)NC(=O)[C@H](CC(C)C)NC(=O)CNC(=O)[C@H](CCC(=O)O)NC6=O)nn4)c3)nn2)CSSC[C@@H]2NC(=O)[C@@H]3CSSC[C@@H](C(=O)N[C@@H](CCCNC(=N)N)C(=O)N[C@@H](CCCCN)C(=O)N[C@H](C(=O)N[C@H](C(N)=O)[C@@H](C)CC)[C@@H](C)CC)NC(=O)[C@H](Cc4c[nH]c5ccccc45)NC(=O)[C@H](CC(C)C)NC(=O)[C@H](CCCCN)NC(=O)[C@H](CSSC[C@H](NC(=O)[C@H]([C@@H](C)O)NC(=O)[C@H](Cc4c[nH]c5ccccc45)NC1=O)C(=O)N[C@@H](CC(=O)O)C(=O)N[C@@H](CO)C(=O)N[C@@H](CCCCN)C(=O)N[C@@H](CCCNC(=N)N)C(=O)N[C@@H](C)C(=O)N3)NC(=O)[C@H](CCCNC(=N)N)NC(=O)[C@H](CC(C)C)NC(=O)CNC(=O)[C@H](CCC(=O)O)NC2=O [Homodimeric Conjugate No. 2, Bis-{Atz(PEG23*)-[Nle6]JzTx-V(1-29)}-5-((2-(benzylthio)acetamido)methyl)isophthalamide] | – | Nav1.4/Nav1.7 (hNav1.4): 5 and 3 |
| C#CC[C@@H]1NC(=O)[C@@H]2CSSC[C@H](NC(=O)[C@H](Cc3ccc(O)cc3)NC(=O)[C@@H](N)CC#N)C(=O)N[C@@H](CCC(N)=O)C(=O)N[C@@H](CCCCN)C(=O)N[C@@H](Cc3c[nH]c4ccccc34)C(=O)N[C@@H](CCCC)C(=O)N[C@@H](Cc3c[nH]c4ccccc34)C(=O)N[C@@H]([C@@H](C)O)C(=O)N[C@H]3CSSC[C@H](NC(=O)[C@H](CCCNC(=N)N)NC(=O)[C@H](CC(C)C)NC(=O)CNC1=O)C(=O)N[C@@H](CCCCN)C(=O)N[C@@H](CC(C)C)C(=O)N[C@@H](Cc1c[nH]c4cc(Br)ccc14)C(=O)N[C@H](C(=O)N[C@@H](CCCNC(=N)N)C(=O)N[C@@H](CCCCN)C(=O)N[C@@H](CCC(=O)O)C(=O)N[C@H](C(N)=O)[C@@H](C)CC)CSSC[C@H](NC(=O)[C@H](C)NC(=O)[C@H](CCCNC(=N)N)NC(=O)[C@H](CCCCN)NC(=O)[C@H](CO)NC(=O)[C@H](CC(=O)O)NC3=O)C(=O)N2 [compound 873] | 8.47 nM | – |
| C#CC[C@@H]1NC(=O)[C@@H]2CSSC[C@H](NC(=O)[C@H](Cc3ccc(O)cc3)NC(=O)[C@@H](N)CC#N)C(=O)N[C@@H](CCC(N)=O)C(=O)N[C@@H](CCCCN)C(=O)N[C@@H](Cc3c[nH]c4ccccc34)C(=O)N[C@@H](CCCC)C(=O)N[C@@H](Cc3c[nH]c4ccccc34)C(=O)N[C@@H]([C@@H](C)O)C(=O)N[C@H]3CSSC[C@H](NC(=O)[C@H](CCCNC(=N)N)NC(=O)[C@H](CC(C)C)NC(=O)CNC1=O)C(=O)N[C@@H](CCCCN)C(=O)N[C@@H](CC(C)C)C(=O)N[C@@H](Cc1c[nH]c4cc(C)ccc14)C(=O)N[C@H](C(=O)N[C@@H](CCCNC(=N)N)C(=O)N[C@@H](CCCCN)C(=O)N[C@@H](CCC(=O)O)C(=O)N[C@H](C(N)=O)[C@@H](C)CC)CSSC[C@H](NC(=O)[C@H](C)NC(=O)[C@H](CCCNC(=N)N)NC(=O)[C@H](CCCCN)NC(=O)[C@H](CO)NC(=O)[C@H](CC(=O)O)NC3=O)C(=O)N2 [compound 874] | 14 nM | – |
| C#CC[C@@H]1NC(=O)[C@@H]2CSSC[C@H](NC(=O)[C@H](Cc3ccc(O)cc3)NC(=O)[C@@H](N)CC#N)C(=O)N[C@@H](CCC(N)=O)C(=O)N[C@@H](CCCCN)C(=O)N[C@@H](Cc3c[nH]c4ccccc34)C(=O)N[C@@H](CCCC)C(=O)N[C@@H](Cc3c[nH]c4ccccc34)C(=O)N[C@@H]([C@@H](C)O)C(=O)N[C@H]3CSSC[C@H](NC(=O)[C@H](CCCNC(=N)N)NC(=O)[C@H](CC(C)C)NC(=O)CNC1=O)C(=O)N[C@@H](CCCCN)C(=O)N[C@@H](CC(C)C)C(=O)N[C@@H](Cc1c[nH]c4c(Br)cccc14)C(=O)N[C@H](C(=O)N[C@@H](CCCNC(=N)N)C(=O)N[C@@H](CCCCN)C(=O)N[C@@H](CCC(=O)O)C(=O)N[C@H](C(N)=O)[C@@H](C)CC)CSSC[C@H](NC(=O)[C@H](C)NC(=O)[C@H](CCCNC(=N)N)NC(=O)[C@H](CCCCN)NC(=O)[C@H](CO)NC(=O)[C@H](CC(=O)O)NC3=O)C(=O)N2 [compound 875] | 25.3 nM | – |
| C#CC[C@@H]1NC(=O)[C@H](CO)NC(=O)[C@H](CC(=O)O)NC(=O)[C@@H]2CSSC[C@@H]3NC(=O)[C@H](CCCNC(=N)N)NC(=O)[C@H](CC(C)C)NC(=O)CNC(=O)[C@H](CCC(=O)O)NC(=O)[C@H](CSSC[C@H](NC(=O)[C@@H](N)Cc4ccc(O)cc4)C(=O)N[C@@H](CCC(N)=O)C(=O)N[C@@H](CCCCN)C(=O)N[C@@H](Cc4c[nH]c5ccccc45)C(=O)N[C@@H](CCCC)C(=O)N[C@@H](Cc4c[nH]c5ccccc45)C(=O)N[C@@H]([C@@H](C)O)C(=O)N2)NC(=O)[C@H](CSSC[C@@H](C(=O)N[C@@H](CCCNC(=N)N)C(=O)N[C@@H](CCCCN)C(=O)N[C@@H](CCC(=O)O)C(=O)N[C@H](C(N)=O)[C@@H](C)CC)NC(=O)[C@H](Cc2c[nH]c4ccccc24)NC(=O)[C@H](CC(C)C)NC(=O)[C@H](CCCCN)NC3=O)NC(=O)[C@H](C)NC(=O)[C@H](CCCNC(=N)N)NC1=O [compound 879] | 1.35 nM | – |
| CCCC[C@@H]1NC(=O)[C@H](Cc2c[nH]c3ccccc23)NC(=O)[C@H](CCCCN)NC(=O)[C@H](CCC(N)=O)NC(=O)[C@@H](NC(=O)[C@H](Cc2ccc(O)cc2)NC(=O)[C@@H](N)CC#N)CSSC[C@@H]2NC(=O)[C@@H]3CSSC[C@@H](C(=O)N[C@@H](CCCNC(=N)N)C(=O)N[C@@H](CCCCN)C(=O)N[C@@H](CCC(=O)O)C(=O)N[C@H](C(N)=O)[C@@H](C)CC)NC(=O)[C@H](Cc4c[nH]c5ccccc45)NC(=O)[C@H](CC(C)C)NC(=O)[C@H](CCCCN)NC(=O)[C@H](CSSC[C@H](NC(=O)[C@H]([C@@H](C)O)NC(=O)[C@H](Cc4c[nH]c5ccccc45)NC1=O)C(=O)N[C@@H](CC(=O)O)C(=O)N[C@@H](CO)C(=O)N[C@@H](CCCCN)C(=O)N[C@@H](CCCNC(=N)N)C(=O)N[C@@H](C)C(=O)N3)NC(=O)[C@H](CCCNC(=N)N)NC(=O)[C@H](CC(C)C)NC(=O)CNC(=O)[C@H](Cc1cn(CCCCCCCCCCCCCCC(=O)O)nn1)NC2=O [compound 895] | – | IC50 (hNav1.7; read-out: PX hNav1.7 Tonic IC50): 260 nM |
| C#CC[C@@H]1NC(=O)[C@@H]2CSSC[C@H](NC(=O)[C@@H](N)CC#N)C(=O)N[C@@H](CCC(N)=O)C(=O)N[C@@H](CCCCN)C(=O)N[C@@H](Cc3c[nH]c4ccccc34)C(=O)N[C@@H](CCCC)C(=O)N[C@@H](Cc3c[nH]c4ccccc34)C(=O)N[C@@H]([C@@H](C)O)C(=O)N[C@H]3CSSC[C@H](NC(=O)[C@H](CCCNC(=N)N)NC(=O)[C@H](CC(C)C)NC(=O)CNC1=O)C(=O)N[C@@H](CCC(N)=O)C(=O)N[C@@H](CC(C)C)C(=O)N[C@@H](Cc1c[nH]c4ccccc14)C(=O)N[C@H](C(=O)N[C@@H](CCCNC(=N)N)C(=O)N[C@@H](CCCCN)C(=O)N[C@@H](CCC(=O)O)C(=O)N[C@H](C(N)=O)[C@@H](C)CC)CSSC[C@H](NC(=O)[C@H](C)NC(=O)[C@H](CCCNC(=N)N)NC(=O)[C@H](CCCCN)NC(=O)[C@H](CO)NC(=O)[C@H](CC(=O)O)NC3=O)C(=O)N2 [compound 1680] | 47.6 nM | – |
| [Phe6,Atz(500 Da EtO-PEG*-[Phe6,Atz13*]GpTx-1(1-34)1)13]GpTx-1(1-34) [Homodimeric Conjugate No. 4] | – | Wash out (hNav1.7): Yes; IC50 (hNav1.7; read-out: Nav1.7 PX IC50): 19 nM |

— US10344060B2 (priority 2013, dated 2019)
